In US4859673A, “Amide derivatives and antiallergic agents containing the same” (Terumo Kabushiki Kaisha, priority 1986, dated 1989):

System: passive cutaneous anaphylaxis reaction (PCA reaction)
Experiment: PCA reaction-inhibitory effects in rats (passive cutaneous anaphylaxis, oral administration)
Type: in vivo, Female Sprague-Dawley strain rats
Conditions: 1 hour before challenge
Method: DNP-ascaris (1 mg) prepared by combining a swine ascaris extract with 2,4-dinitrophenyl sulfate was mixe with 20 mg of aluminum hydroxide gel. The mixture was administered to rats subcutaneously on the back, and at the same time the animals were intraperitoneally given 2×10^10 dead Bordetella pertussis respectively. The same procedures were repeated after 14 days, and blood sample was obtained after 21 days to produce antisera.
Female Sprague-Dawley strain rats (8 weeks old) were sensitized by subcutaneously administering 0.1 ml of 1:256 diluted antisera (titer=1024)respectively on the grained back. After 48 hours, groups of four rats were orally given the amide derivatives produced in the examples above at various concentrations. After one hour, the rats were challenged by intravenously administering a 0.5% physiological saline solution of Evans Blue containing 1 mg of the NDP-ascaris from the tail. After 30 minutes, the animal was sacrificed by bleeding and the portion of the skin with the dye exuded was cut off. The cut skin was treated with 1N-KOH solution, and the dye was extracted by adding 9 ml of 0.6N-phosphoric acid-acetone (5:13) mixture. The supernatant from centrifugal separation was measured for absorbancy at 620 nm to determine amount of the dye. Percent inhibition at each of the concentrations of the amide derivatives was calculated in comparison with amount of the dye for control group. Results are shown in Table-I. Percent inhibition of tranilast, an antiallergic agent commercially available from Kissei Pharmaceutical Co., Ltd. under the trade name of Rizaben against PCA reaction was also shown in Table-I. As shown in Table-I, the amide derivatives of the invention produced high PCA reaction-inhibitory effects.

SMILES | Inhibition (%) mean ± SE, PCA reaction (30 mg/kg) | Inhibition (%) mean ± SE, PCA reaction (100 mg/kg) | Inhibition (%) mean ± SE, PCA reaction (10 mg/kg) | Inhibition (%) mean ± SE, PCA reaction (200 mg/kg) | Inhibition (%) mean ± SE, PCA reaction (300 mg/kg)
COc1cc(/C=C/C=C/C(=O)NCCN2CCC(OC(c3ccccc3)c3ccccc3)CC2)ccc1OCc1ccccc1 [Example 1, 1-[2-(5-(3-methoxy-4-benzyloxyphenyl)-2,4-pentadienoyl)aminoethyl]-4-diphenylmethoxypiperidine] | 0 ± 20% | 50 ± 14% |  |  | 
COc1cc(/C=C/C=C/C(=O)NCCN2CCC(OC(c3ccccc3)c3ccccc3)CC2)ccc1OC1CCCO1 (stereo not drawn) [Example 2, 1-[2-(5-(3-methoxy-4-(2-tetrahydrofuranyl)oxyphenyl)-2,4-pentadienoyl)aminoethyl]-4-diphenylmethoxypiperidine] | 71 ± 6% |  | 51 ± 18% |  | 
CCOCOc1ccc(/C=C/C=C/C(=O)NCCN2CCC(OC(c3ccccc3)c3ccccc3)CC2)cc1OC [Example 3, 1-[2-(5-(3-methoxy-4-ethoxymethoxyphenyl)-2,4-pentadienoyl)aminoethyl]-4-diphenylmethoxypiperidine] | 55 ± 9% | 78 ± 8% |  |  | 
COc1ccc(/C=C/C(=O)Nc2ccccc2C(=O)O)cc1OC [Tranilast, reference compound] |  | 37 ± 8% |  | 40 ± 10% | 42 ± 5%
